From US8829185B2 (Bayer HealthCare LLC, priority 2005, dated 2014)

Target: T1, FGFR1-GST (Homo sapiens, UniProt P11362)
T1 construct: GST; made in house
Test: FGFR-1 TR-FRET biochemical assay
Procedure: FGFR-1 TR-FRET Biochemical Assay
The FGFR-1 Assay was performed on half well 96-well opaque plates (Costar 3915) in a LANCE format. LANCE is a homogenous time resolved fluormetry based application available through Perkin Elmer. For this assay, 50 uL reactions were set up using: 0.6 uM ATP (Sigma), 25 nM poly GT-biotin (CIS BIO International), 2 nM Eu-labelled phospho-Tyr Ab (PY20 PerkinElmer), 10 nM Streptavidin-APC (Perkin Elmer), 5 nM FGFR1-GST (generated by DRT, Bayer Healthcare), 1% DMSO, 50 mM HEPES pH 7.5, 10 mM MgCl2, 0.1 mM EDTA, 0.015% Brij, 0.1 mg/ml BSA, 0.1% B-mercaptoethanol. All reactions were initiated with the addition of enzyme and were left to incubate for one hour at room temperature. Time-resolved fluorescence was then read on a Perkin Elmer VictorV Multilabel counter. The reading protocol uses an excitation wavelength at 340 nm and emission reads at both 615 and 665 nm. Signal was calculated as a ratio: (Fluorescence at 665 nm/Fluorescence at […])*10000 for each well. The background control used for this assay is the signal produced with all assay components excluding ATP. For IC50 generation, compounds were added prior to the enzyme initiation. A 50-fold stock plate was made with compounds serially diluted 1:5 in a 50% DMSO/50% dH2O solution. A 1 μL addition of the stock to the assay wells gave final compound concentrations ranging from 10 μM −0.128 nM in 1% DMSO. The data were expressed as percent inhibition: % inhibition=100−((Signal with inhibitor-background)/(Signal without inhibitor−background))*100.

T1 sequence (P11362 22-822): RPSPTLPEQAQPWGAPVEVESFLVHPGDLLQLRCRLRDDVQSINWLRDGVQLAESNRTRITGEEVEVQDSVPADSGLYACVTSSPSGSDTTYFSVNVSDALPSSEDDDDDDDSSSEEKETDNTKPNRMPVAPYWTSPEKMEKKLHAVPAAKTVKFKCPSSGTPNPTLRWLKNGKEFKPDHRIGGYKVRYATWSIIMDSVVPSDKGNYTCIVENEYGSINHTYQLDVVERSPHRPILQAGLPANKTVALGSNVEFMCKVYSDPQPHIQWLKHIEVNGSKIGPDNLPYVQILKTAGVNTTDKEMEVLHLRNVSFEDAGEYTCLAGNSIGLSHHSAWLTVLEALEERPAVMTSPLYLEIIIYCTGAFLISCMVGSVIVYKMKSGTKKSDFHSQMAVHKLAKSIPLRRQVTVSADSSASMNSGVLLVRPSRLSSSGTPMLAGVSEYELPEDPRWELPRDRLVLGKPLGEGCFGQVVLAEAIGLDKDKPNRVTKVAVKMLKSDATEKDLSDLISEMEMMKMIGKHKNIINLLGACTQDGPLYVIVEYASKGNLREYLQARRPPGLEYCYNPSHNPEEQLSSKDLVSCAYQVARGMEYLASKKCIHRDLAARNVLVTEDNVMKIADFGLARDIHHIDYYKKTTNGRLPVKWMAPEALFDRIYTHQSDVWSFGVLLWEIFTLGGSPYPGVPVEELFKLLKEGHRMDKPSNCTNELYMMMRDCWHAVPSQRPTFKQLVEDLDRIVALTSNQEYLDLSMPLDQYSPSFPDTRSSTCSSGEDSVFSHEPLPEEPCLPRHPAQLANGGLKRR

Row | SMILES | IC50 (bounds given in nM) | IC50 (upper bound in μM)
1 | CCOC(=O)c1c(-c2ccc(NC(=O)Nc3cc(C(F)(F)F)ccn3)cc2)c2c(N)ncnn2c1-c1cccc(F)c1 [Example 1, Ethyl 4-amino-7-(3-fluorophenyl)-5-{4-[({[4-(trifluoromethyl)pyridin-2-yl]amino}carbonyl)amino]phenyl}-pyrrolo[2,1-f][1,2,4]triazine-6-carboxylate] | 10 to 100 nM | –
2 | N#Cc1c(C(=O)O)c(-c2ccc(NC(=O)Nc3cc(C(F)(F)F)ccn3)cc2)c2c(N)ncnn12 [Example 8, 4-amino-7-cyano-5-{4-[({[4-(trifluoromethyl)pyridin-2-yl]amino}carbonyl)amino]phenyl}pyrrolo[2,1-f][1,2,4]triazine-6-carboxylic acid] | > 100 nM | < 1000 nM
3 | COCc1c(-c2ccc(NC(=O)Nc3cccc(C(F)(F)F)n3)cc2)c2c(N)ncnn2c1CN1CCOCC1 [Example 50] | > 100 nM | < 1000 nM
4 | COCc1c(-c2ccc(NC(=O)Nc3cc(C(F)(F)F)ccc3F)cc2)c2c(N)ncnn2c1CN1CCCC1 [Example 14, N-{4-[4-amino-6-(methoxymethyl)-7-(pyrrolidin-1-ylmethyl)pyrrolo[2,1-f][1,2,4]triazin-5-yl]phenyl}-N′-[2-fluoro-5-(trifluoromethyl)phenyl]urea] | 10 to 100 nM | –
5 | Nc1ncnn2c(CN3CCOCC3)c(-c3cnco3)c(-c3ccc(NC(=O)Nc4cc(C(F)(F)F)ccc4F)cc3)c12 [Example 26, N-4-[4-amino-7-(morpholin-4-ylmethyl)-6-(1,3-oxazol-5-yl)pyrrolo[2,1-f][1,2,4]triazin-5-yl]phenyl-N′-[2-fluoro-5-(trifluoromethyl)phenyl]urea] | < 10 nM | –
6 | N#Cc1c(C(=O)NCC(F)(F)F)c(-c2ccc(NC(=O)Nc3cc(C(F)(F)F)ccc3F)cc2)c2c(N)ncnn12 [Example 5, 4-amino-7-cyano-5-4-[([2-fluoro-5-(trifluoromethyl)phenyl]aminocarbonyl)amino]phenyl-N-(2,2,2-trifluoroethyl)-pyrrolo[2,1-f][1,2,4]triazine-6-carboxamide] | 10 to 100 nM | –
7 | COCCNCc1c(COC)c(-c2ccc(NC(=O)Nc3cc(C(F)(F)F)ccc3F)cc2)c2c(N)ncnn12 [Example 15, N-{4-[4-amino-7-{[(2-methoxyethyl)amino]methyl}-6-(methoxymethyl)pyrrolo[2,1-f][1,2,4]triazin-5-yl]phenyl}-N′-[2-fluoro-5-(trifluoromethyl)phenyl]urea] | 10 to 100 nM | –
8 | COCc1c(-c2ccc(NC(=O)Nc3cc(C(F)(F)F)ccc3F)c(F)c2)c2c(N)ncnn2c1CN1CCS(=O)(=O)CC1 [Example 43, N-{4-[4-amino-7-[(1,1-dioxidothiomorpholin-4-yl)methyl]-6-(methoxymethyl)pyrrolo[2,1-f][1,2,4]triazin-5-yl]-2-fluorophenyl}-N′-[2-fluoro-5-(trifluoromethyl)phenyl]urea] | 10 to 100 nM | –
9 | CN1CCN(Cc2c(C#N)c(-c3ccc(NC(=O)Nc4cc(C(F)(F)F)ccc4F)cc3)c3c(N)ncnn23)CC1 [Example 55, N-(4-4-amino-6-cyano-7-[(4-methylpiperazin-1-yl)methyl]-pyrrolo[2,1-f][1,2,4]triazin-5-ylphenyl)-N′-[2-fluoro-5-(trifluoromethyl)-phenyl]urea] | 10 to 100 nM | –
10 | COCc1c(-c2ccc(NC(=O)Nc3cc(C(F)(F)F)ccc3F)cc2)c2c(N)ncnn2c1COC [Example 24, N-{4-[4-amino-6,7-bis(methoxymethyl)pyrrolo[2,1-f]-[1,2,4]triazin-5-yl]phenyl}-N′-[2-fluoro-5-(trifluoromethyl)phenyl]urea] | 10 to 100 nM | –
11 | COCc1c(-c2ccc(NC(=O)Nc3cc(C(F)(F)F)ccc3F)c(F)c2)c2c(N)ncnn2c1CN1CCOCC1 [Example 45, N-{4-[4-amino-6-(methoxymethyl)-7-(morpholin-4-ylmethyl)pyrrolo[2,1-f][1,2,4]triazin-5-yl]-2-fluorophenyl}-N′-[2-fluoro-5-(trifluoromethyl)phenyl]urea] | < 10 nM | –
12 | COCc1c(-c2ccc(NC(=O)Nc3cc(C(F)(F)F)ccc3Cl)cc2)c2c(N)ncnn2c1CN1CCOCC1 [Example 49, N-{4-[4-amino-6-(methoxymethyl)-7-(morpholin-4-ylmethyl)pyrrolo[2,1-f][1,2,4]triazin-5-yl]phenyl}-N′-[2-chloro-5-(trifluoromethyl)phenyl]urea] | 10 to 100 nM | –
13 | CC(=O)c1c(-c2ccc(NC(=O)Nc3cccc(C(F)(F)F)c3)c(F)c2)c2c(N)ncnn2c1CN1CCOCC1 [Example 58, N-4-[6-acetyl-4-amino-7-(morpholin-4-ylmethyl)pyrrolo[2,1-f][1,2,4]triazin-5-yl]-2-fluorophenyl-N′-[3-(trifluoromethyl)phenyl]urea] | < 10 nM | –

Further lines, results first:

Row | IC50 (bounds given in nM) | IC50 (upper bound in μM) | SMILES
14 | 10 to 100 nM | – | Cc1c(-c2cc(F)c(NC(=O)Nc3cc(C(F)(F)F)ccc3F)cc2F)c2c(N)ncnn2c1CN1CCOCC1 [Example 123, N-{4-[4-amino-6-methyl-7-(morpholin-4-ylmethyl)pyrrolo[2,1-f][1,2,4]triazin-5-yl]-2,5-difluorophenyl}-N′-[2-fluoro-5-(trifluoromethyl)-phenyl]urea]
15 | < 10 nM | – | Nc1ncnn2c(CN3CCOCC3)c(/C=N/O)c(-c3ccc(NC(=O)Nc4cc(C(F)(F)F)ccc4F)cc3)c12 [Example 102, N-4-[4-amino-6-[(E)-(hydroxyimino)methyl]-7-(morpholin-4-ylmethyl)pyrrolo[2,1-f][1,2,4]triazin-5-yl]phenyl-N′-[2-fluoro-5-(trifluoromethyl)phenyl]urea]
16 | < 10 nM | – | Cc1cc(-c2c(C)c(CN3CCCOCC3)n3ncnc(N)c23)ccc1NC(=O)Nc1cc(C(F)(F)F)ccc1F [Example 126, 1-{4-[4-amino-6-methyl-7-(1,4-oxazepan-4-ylmethyl)pyrrolo[2,1-f][1,2,4]triazin-5-yl]-2-methylphenyl}-3-[2-fluoro-5-(trifluoromethyl)-phenyl]urea]
17 | < 10 nM | – | N#CCc1c(-c2ccc(NC(=O)Nc3cc(C(F)(F)F)ccc3F)cc2)c2c(N)ncnn2c1CN1CCNCC1 [Example 75, N-(4-{4-amino-6-(cyanomethyl)-7-(piperazin-1-ylmethyl)pyrrolo[2,1-f][1,2,4]triazin-5-yl}phenyl)-N′-[2-fluoro-5-(trifluoromethyl)phenyl]urea]
18 | > 100 nM | < 1000 nM | CC(C)(O)c1c(-c2ccc(NC(=O)Nc3cc(C(F)(F)F)ccn3)cc2)c2c(N)ncnn2c1CN1CCOCC1 [Example 86]
19 | > 100 nM | < 1000 nM | COCc1c(-c2ccc(NC(=O)Nc3cc(C(F)(F)F)ccc3F)c(F)c2)c2c(N)ncnn2c1C1CCN(C(=O)N(C)C)CC1 [Example 150, 4-{4-amino-5-[3-fluoro-4-({[2-fluoro-5-(trifluoromethyl)-phenyl]carbamoyl}amino)phenyl]-6-(methoxymethyl)-pyrrolo[2,1f][1,2,4]-triazin-7-yl}-N,N-dimethylpiperidine-1-carboxamide]
20 | < 10 nM | – | Cc1c(-c2ccc(NC(=O)Nc3cc(C(F)(F)F)ccc3F)cc2)c2c(N)ncnn2c1CN1CCCOCC1 [Example 117, N-{4-[4-amino-6-methyl-7-(1,4-oxazepan-4-ylmethyl)pyrrolo[2,1-f][1,2,4]triazin-5-yl]phenyl}-N′-[2-fluoro-5-(trifluoromethyl)phenyl]urea]
21 | 10 to 100 nM | – | Nc1ncnn2c(CN3CCOCC3)c(Cl)c(-c3ccc(NC(=O)Nc4cccc(C(F)(F)F)c4)c(Cl)c3)c12 [Example 160, N-{4-[4-amino-6-chloro-7-(morpholin-4-ylmethyl)pyrrolo[2,1-f][1,2,4]triazin-5-yl]-2-chlorophenyl}-N′-[3-(trifluoromethyl)phenyl]urea]
22 | < 10 nM | – | CC(=O)c1c(-c2ccc(NC(=O)Nc3cc(C(F)(F)F)ccc3F)cc2)c2c(N)ncnn2c1CN1CCOCC1 [Example 105, N-4-[6-acetyl-4-amino-7-(morpholin-4-ylmethyl)pyrrolo[2,1-f][1,2,4]triazin-5-yl]phenyl-N′-[2-fluoro-5-(trifluoromethyl)phenyl]urea]
23 | 10 to 100 nM | – | Nc1ncnn2c(CN3CCOCC3)c(C(F)F)c(-c3ccc(NC(=O)Nc4cc(C(F)(F)F)ccc4F)c(F)c3)c12 [Example 99, N-{4-[4-amino-6-(difluoromethyl)-7-(morpholin-4-ylmethyl)-pyrrolo[2,1-f][1,2,4]triazin-5-yl]-2-fluorophenyl}-N′-[2-fluoro-5-(trifluoromethyl)phenyl]urea]
24 | < 10 nM | – | Cc1cc(-c2c(C)c(CN3CCOCC3)n3ncnc(N)c23)ccc1NC(=O)Nc1cc(C(F)(F)F)ccn1 [Example 119, N-{4-[4-amino-6-methyl-7-(morpholin-4-ylmethyl)pyrrolo[2,1-f][1,2,4]triazin-5-yl]-2-methylphenyl}-N′-[4-(trifluoromethyl)pyridin-2-yl]urea]
25 | < 10 nM | – | COCc1c(-c2ccc(NC(=O)Nc3cc(C)ccc3F)c(F)c2)c2c(N)ncnn2c1CN1CCOCC1 [Example 131, N-{4-[4-amino-6-(methoxymethyl)-7-(morpholin-4-ylmethyl)-pyrrolo[2,1-f][1,2,4]triazin-5-yl]-2-fluorophenyl}-N′-(2-fluoro-5-methyl-phenyl)urea]
